Data from the NIST ThermoML archive (doi:10.1007/s10765-014-1598-0).

What was measured:
[1] = wn = mass fraction of the nth substance listed; settings: Liquid, Parallel plate method
[2] = Liquid, Parallel plate method

O [water] + O=P(O)(O)O
[1], w2 = 0
Settings	thermal conductivity [W/m/K]
292.04 K, 101 kPa	0.596
292.37 K, 5000 kPa	0.599
292.41 K, 15000 kPa	0.606
301.85 K, 101 kPa	0.612
308.34 K, 101 kPa	0.622
313.16 K, 5000 kPa	0.634
313.35 K, 15000 kPa	0.636
318.33 K, 101 kPa	0.634
327.48 K, 101 kPa	0.645
332.62 K, 15000 kPa	0.657
332.85 K, 5000 kPa	0.656
337.32 K, 101 kPa	0.655
346.93 K, 101 kPa	0.662
351.91 K, 5000 kPa	0.671
353.17 K, 15000 kPa	0.673
356.69 K, 101 kPa	0.668
364.08 K, 5000 kPa	0.679
364.53 K, 15000 kPa	0.682
371.79 K, 101 kPa	0.677
382.36 K, 15000 kPa	0.688
382.41 K, 5000 kPa	0.686
398.77 K, 5000 kPa	0.688
399.64 K, 15000 kPa	0.691

O=P(O)(O)O [phosphoric acid] + O
[1]
Settings	thermal conductivity [W/m/K]
291.42 K, 5000 kPa, w1 = 0.08	0.568
291.7 K, 15000 kPa, w1 = 0.08	0.578
292.71 K, 101 kPa, w1 = 0.5	0.482
293.15 K, 15000 kPa, w1 = 0.5	0.498
293.16 K, 101 kPa, w1 = 0.08	0.566
293.26 K, 5000 kPa, w1 = 0.5	0.489
294.15 K, 5000 kPa, w1 = 0.155	0.545
294.23 K, 15000 kPa, w1 = 0.155	0.556
294.32 K, 101 kPa, w1 = 0.155	0.529
298.48 K, 101 kPa, w1 = 0.08	0.575
300.86 K, 101 kPa, w1 = 0.5	0.493
303.03 K, 101 kPa, w1 = 0.155	0.545
310.72 K, 5000 kPa, w1 = 0.155	0.568
310.89 K, 15000 kPa, w1 = 0.155	0.58
312.81 K, 15000 kPa, w1 = 0.5	0.525
313.19 K, 5000 kPa, w1 = 0.5	0.516
313.91 K, 101 kPa, w1 = 0.08	0.597
313.94 K, 101 kPa, w1 = 0.155	0.561
314.07 K, 101 kPa, w1 = 0.155	0.563
315.13 K, 101 kPa, w1 = 0.5	0.514
315.16 K, 5000 kPa, w1 = 0.08	0.609
315.18 K, 15000 kPa, w1 = 0.08	0.613
320.54 K, 101 kPa, w1 = 0.08	0.607
321.54 K, 101 kPa, w1 = 0.155	0.571
329.59 K, 101 kPa, w1 = 0.5	0.53
330.24 K, 15000 kPa, w1 = 0.5	0.545
330.25 K, 101 kPa, w1 = 0.155	0.582
330.43 K, 5000 kPa, w1 = 0.5	0.54
332.5 K, 15000 kPa, w1 = 0.155	0.605
332.65 K, 5000 kPa, w1 = 0.155	0.592
334.07 K, 5000 kPa, w1 = 0.08	0.633
334.29 K, 15000 kPa, w1 = 0.08	0.641
339.46 K, 101 kPa, w1 = 0.5	0.538
342.35 K, 101 kPa, w1 = 0.155	0.598
342.83 K, 101 kPa, w1 = 0.08	0.63
343.21 K, 101 kPa, w1 = 0.155	0.599
345.9 K, 101 kPa, w1 = 0.08	0.634
350.37 K, 15000 kPa, w1 = 0.08	0.654
350.49 K, 5000 kPa, w1 = 0.08	0.646
352.63 K, 15000 kPa, w1 = 0.5	0.566
352.82 K, 5000 kPa, w1 = 0.5	0.569
352.88 K, 101 kPa, w1 = 0.155	0.607
353.04 K, 5000 kPa, w1 = 0.155	0.615
353.17 K, 15000 kPa, w1 = 0.155	0.622
354.94 K, 101 kPa, w1 = 0.5	0.55
355.76 K, 101 kPa, w1 = 0.08	0.642
360.16 K, 101 kPa, w1 = 0.155	0.613
360.21 K, 101 kPa, w1 = 0.155	0.614
363.17 K, 5000 kPa, w1 = 0.5	0.564
363.2 K, 15000 kPa, w1 = 0.5	0.572
364.06 K, 15000 kPa, w1 = 0.155	0.632
364.17 K, 5000 kPa, w1 = 0.155	0.626
364.98 K, 15000 kPa, w1 = 0.08	0.666
365.14 K, 5000 kPa, w1 = 0.08	0.667
369.33 K, 101 kPa, w1 = 0.08	0.65
370.07 K, 101 kPa, w1 = 0.155	0.618
372.13 K, 101 kPa, w1 = 0.5	0.56
380.77 K, 15000 kPa, w1 = 0.08	0.673
380.93 K, 5000 kPa, w1 = 0.08	0.669
383.41 K, 15000 kPa, w1 = 0.5	0.58
383.52 K, 5000 kPa, w1 = 0.5	0.575
385.14 K, 15000 kPa, w1 = 0.155	0.64
385.31 K, 5000 kPa, w1 = 0.155	0.636
397.89 K, 5000 kPa, w1 = 0.155	0.635
399.66 K, 15000 kPa, w1 = 0.5	0.583
399.84 K, 15000 kPa, w1 = 0.08	0.677
400.05 K, 5000 kPa, w1 = 0.08	0.672
400.07 K, 15000 kPa, w1 = 0.155	0.642
400.18 K, 5000 kPa, w1 = 0.5	0.58

O [water]
[2]
Settings	thermal conductivity [W/m/K]
292.04 K, 101 kPa	0.596
292.37 K, 5000 kPa	0.599
292.41 K, 15000 kPa	0.606
301.85 K, 101 kPa	0.612
308.34 K, 101 kPa	0.622
313.16 K, 5000 kPa	0.634
313.35 K, 15000 kPa	0.636
318.33 K, 101 kPa	0.634
327.48 K, 101 kPa	0.645
332.62 K, 15000 kPa	0.657
332.85 K, 5000 kPa	0.656
337.32 K, 101 kPa	0.655
346.93 K, 101 kPa	0.662
351.91 K, 5000 kPa	0.671
353.17 K, 15000 kPa	0.673
356.69 K, 101 kPa	0.668
364.08 K, 5000 kPa	0.679
364.53 K, 15000 kPa	0.682
371.79 K, 101 kPa	0.677
382.36 K, 15000 kPa	0.688
382.41 K, 5000 kPa	0.686
398.77 K, 5000 kPa	0.688
399.64 K, 15000 kPa	0.691
